“Also recorded” adds a separate entry of the source. Where two headings read alike, the source gives them in different places.
Columns and labels:
[1] = system: L.P.S. typhimurium-induced diarrhoea; assay: L.P.S. typhimurium-induced diarrhoea; format: in vivo; details: dexecadotril 0.1 mg/kg alone
[2] = system: abdominal pain (abdominal cramps elicited by rectal distention); assay: abdominal cramps elicited by rectal distention in trinitrobenzenesulfonic acid-pretreated rats; format: in vivo; details: administered alone
From the text: The combinations of the invention involve a synergy against abdominal pain as the authors of the present invention have discovered using a classical model of abdominal pain in rodents (Morteau et al., Gastroenterology, 1993, 104, 47). Rats were […] trinitrobenzenesulfonic acid to induce intestinal inflammation and pain sensitivity, as assessed by evaluation of the abdominal cramps elicited by rectal distention.

[3] = system: cytochrome P 450 subtypes; assay: interaction with cytochrome P 450 subtypes; format: in vitro ADME
E. coli toxins = details: cited from earlier work
[4] = system: castor oil-induced diarrhoea; assay: castor oil-induced diarrhoea in rats; format: in vivo
Experimental: The outstanding activity of the combinations of the invention was evidenced on an animal model of experimental diarrhoea. A combination of the invention was evaluated on the castor oil-induced diarrhoea in rats, according to Niemegeers et al. ([…]. (Drug Res), 1974, 24 No. 10). Rats received ondansetron (0.1 mg/kg, p.o.) and racecadotril (40 mg/kg, p.o.) administered together. […] As comparative examples, ondansetron and racecadotril were also administered alone at the same dosages.

drug metabolism pathway = format: in vitro ADME; details: enkephalinase inhibitors
gastroenteritis = details: cited from earlier work
abdominal cramps = details: via protection of endogenous opioid peptides; cited from earlier work
[5] = in vivo; cited from earlier work
colonic transit = colonic transit in rodents; format: in vivo; details: enkephalinase inhibitor alone
From the text: This effect is blocked by co-administration of ondansetron. Since the transit is already strongly accelerated in gastroenteritis, the combinations of the present invention allow the antisecretory pro-absorptive activity of enkephalinase inhibitors to be exerted for a longer time upon the watery intestinal lumen content, thus resulting in a synergic antidiarrheal effect.

[6] = 5-HT3 receptor inhibitors; cited from earlier work
Salmonella = details: cited from earlier work
[7] = racecadotril 40 mg/kg p.o. alone

| Structure (SMILES) | antidiarrheal activity [1] | prevention of pain manifestations [2] | interaction with cytochrome P 450 subtypes [3] | antisecretory activity (E. coli toxins) | antidiarrheal activity ([4]; dexecadotril 0.1 mg/kg alone) | metabolism pathway (drug metabolism pathway) | abdominal pain (gastroenteritis) | antinociceptive effect (abdominal cramps) | plasma half-life [5] | duration of protection [4, 7] | protection against diarrhoea [4, 7] | effect on colonic transit (colonic transit) | metabolism pathway [6] | diarrhoea (gastroenteritis) | emesis (gastroenteritis; particularly in children) | prevention of hypersecretion (Salmonella) | antidiarrheal activity ([4]; ondansetron 0.1 mg/kg p.o. alone) | antidiarrheal activity ([4]; ondansetron 1 mg/kg alone) |
| --- | --- | --- | --- | --- | --- | --- | --- | --- | --- | --- | --- | --- | --- | --- | --- | --- | --- | --- |
| CC(=O)SC[C@H](Cc1ccccc1)C(=O)NCC(=O)OCc1ccccc1 [dexecadotril] | an antidiarrheal activity | partially prevent | do not significantly interact | active | an antidiarrheal activity; also recorded: only partially inactive | mainly occurs via S-methylation | – | – | – | – | – | – | – | – | – | – | – | – |
| CC(=O)SCC(Cc1ccccc1)C(=O)NCC(=O)OCc1ccccc1 (stereo not drawn) [racecadotril] | – | partially prevent | do not significantly interact | active | – | mainly occurs via S-methylation | significantly diminished | partial antinociceptive effect | ~3 h | 4 h | partial protection | tend to accelerate colonic transit | – | – | – | – | – | – |
| CN1C2CCCC1CC(NC(=O)c1nn(C)c3ccccc13)C2 (stereo not drawn) [granisetron] | – | – | – | – | – | – | – | – | ~3 h | – | – | – | oxidation by various cytochrome P 450 subtypes | – | – | – | – | – |
| Cc1nccn1CC1CCc2c(c3ccccc3n2C)C1=O (stereo not drawn) [ondansetron] | – | partially prevent | – | not | – | – | – | – | ~3 h | – | – | – | oxidation by various cytochrome P 450 subtypes | not significantly affected or even increased; also recorded: fail to affect diarrhoea; also recorded: increase its duration | significantly reduced | prevents the hypersecretion | inactive | inactive |

Source: patent publication US8222294B2, “Combinations of an anti emetic agent and an enkephalinase inhibitor” (Bioproject, priority 2004, dated 2012)
